Patent US8895579B2, “Heterotricyclic AMPA receptor antagonists for treatment of epilepsy, pain, and other neurological disorders and diseases” (Northwestern University, priority 2010, dated 2014)

Assays:
[1] = test system: primary hippocampal neurons; experiment: In vitro model of status epilepticus (Mg2+ removal, 2 μM glycine), action potential firing in hippocampal neurons; type: cell-based
Description: Experiments involving primary hippocampal neurons were carried out as described previously (Vivithanaporn et al., 2007). Dissociated neurons were cultured from E18 prenatal hippocampi and were used for analysis from between 17 and 28 days in vitro. The extracellular solution was the same as used for recombinant receptor analysis, while the internal solution for voltage clamp recordings contained (in mM) 95 CsF, 25 CsCl, 10 Cs-HEPES, 10 EGTA, 2 NaCl, 2 Mg-ATP, 10 QX-314, 5 TEA. and 5 4-AP (pH 7.3) and the internal solution for current clamp recordings contained (in mM) 120 KMeSO4, 5 KCl, 5 NaCl, 1 MgCl2, 11 Na-HEPES, 10 phosphocreatine, 4 Na-ATP, and 0.3 Na-GTP (pH 7.0). Borosilicate patch electrodes were pulled and fire polished to 3-5 MΩ resistance. Both whole cell current clamp and voltage clamp recordings were performed using an Axopatch 200B amplifier (MDS, Sunnyvale, Calif.) and filtered at 20 kHz. Gigaohm seals were established in voltage clamp mode and, after membrane rupture, the recordings were carried out either in voltage clamp (clamped at Vm=−70 mV) with a […] series resistance, which was compensated to ˜60%, or in current clamp mode ([…]) with the bridge balance was corrected and pipette resistance neutralized. In vitro status epilepticus (SE) was induced as described previously (Deshpande et al., 2007; Pal et al., 1999) and action potentials were recorded in current clamp mode. Briefly for in vitro SE, magnesium-containing external solution was exchanged for external solution without magnesium and supplemented with 2 μM glycine. This solution exchange produced a period of rapid depolarization and increased AP firing, followed by a period of channel inactivation and reduced AP firing. After channel inactivation, neurons characteristically would hyperpolarize to hold at a membrane voltage (Vm) which was depolarized relative to control Vm, with an increase in AP firing frequency. […] External solutions were bath-applied at a flow rate of 1.5-2 ml/minute. After recording a basal control period, IKM compounds were applied for five minutes (10 minutes for in vitro SE experiments) and changes in excitatory post-synaptic current (EPSC) charge transfer or action potential (AP) frequency were analyzed during the last two minutes of IKM application.
Several AMPA receptor selective antagonists reduce neuronal hyperactivity in both acute brain slice preparations and in in vitro models of epilepsy (Grasso et al., 1999; Szabados et al., 2001). […] We therefore tested the efficacy of IKM-159 in reducing the hyperactive neuronal phenotype in dissociated hippocampal neurons using an in vitro model of status epilepticus (SE) (Deshpande et al., 2007; Pal et al., 1999). […]

GluK1-2b = biological target: T1, GluK1-2b (Rattus norvegicus, UniProt P22756); experiment: [3H]-KA radioligand binding, membranes of HEK293-T/17 cells expressing GluK1-2b; conditions: 10 nM [3H]-KA, 1 h at 4° C., read-out: [3H]KA bound as percent of total (specific) binding in absence of competing ligand
T1 construct: myc; expressed in transfected cells; host or cells: HEK293-T/17 (CRL-11268)
T1 sequence (P22756 31-905 isoform P22756-2 limits assumed): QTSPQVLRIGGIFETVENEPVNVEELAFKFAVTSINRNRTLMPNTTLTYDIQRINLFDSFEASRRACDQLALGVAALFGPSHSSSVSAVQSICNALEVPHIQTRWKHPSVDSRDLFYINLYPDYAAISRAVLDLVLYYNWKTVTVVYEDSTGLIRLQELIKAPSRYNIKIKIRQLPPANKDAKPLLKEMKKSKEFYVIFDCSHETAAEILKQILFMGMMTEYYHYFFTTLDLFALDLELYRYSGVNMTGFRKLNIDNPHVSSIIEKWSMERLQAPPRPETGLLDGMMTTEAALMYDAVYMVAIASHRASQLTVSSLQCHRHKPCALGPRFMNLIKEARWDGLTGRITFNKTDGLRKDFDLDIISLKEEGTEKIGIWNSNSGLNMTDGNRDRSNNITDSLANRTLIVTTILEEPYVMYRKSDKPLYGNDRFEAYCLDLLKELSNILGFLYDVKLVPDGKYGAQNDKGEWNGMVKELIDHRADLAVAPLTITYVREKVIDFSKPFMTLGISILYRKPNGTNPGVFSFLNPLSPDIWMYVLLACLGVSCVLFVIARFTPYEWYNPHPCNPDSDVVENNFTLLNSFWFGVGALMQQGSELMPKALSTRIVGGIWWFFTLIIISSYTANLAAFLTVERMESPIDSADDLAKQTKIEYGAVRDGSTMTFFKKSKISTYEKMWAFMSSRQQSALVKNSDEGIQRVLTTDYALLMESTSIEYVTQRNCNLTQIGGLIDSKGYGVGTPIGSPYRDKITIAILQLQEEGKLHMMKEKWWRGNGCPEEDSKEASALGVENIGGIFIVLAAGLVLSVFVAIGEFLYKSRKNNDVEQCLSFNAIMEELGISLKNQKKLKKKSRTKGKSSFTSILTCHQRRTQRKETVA
Description: Radioligand binding. HEK293-T/17 cells were transfected with 5 μg of iGluR cDNA in 100 mm^2 culture dishes. Two days post transfection, the plates were washed twice with ice-cold Dulbecco's phosphate-buffered saline (DPBS) and then incubated with 50 mM Tris (pH 7.4) and 1 mM EDTA for three minutes on ice. Cells were collected and centrifuged for five minutes at 800 g at room temperature. The cell pellet was homogenized in 50 mM Tris (pH 7.4) containing 320 mM sucrose (homogenization buffer, HB) on ice using a glass dounce homogenizer and centrifuged at 4° C. for 10 minutes at 800 g. The supernatant, containing the membrane fragments, was saved and the remaining pellet containing nuclei and unbroken cells was resuspended in HB. This homogenization process was repeated two more times and after collection of the final resulting supernatant, the remaining pellet was discarded. The collected supernatants were centrifuged at 4° C. for 20 minutes at 20000 g and the resulting supernatant was discarded leaving a membrane-containing pellet. […] Non-specific binding was determined as the amount of radioligand bound in the presence of a saturating concentration of glutamate (1 mM). Total binding was determined as the amount of radioligand bound in the absence of any competing ligands minus the non-specific binding. […]

O=C(O)C[C@@]12O[C@H]3C=CCN[C@H]3C1CN[C@H]2C(=O)O (stereo partly shown) [IKM-159]
AP firing frequency in SE condition with compound ([1]; 3 μM, SE condition 5.7±1.2 Hz, n.s.): 4.3±1.7 Hz | AP firing frequency upon wash out of compound ([1]; 20 μM, 10 minutes after removal): 1.0±0.3 Hz | AP firing frequency in SE condition with compound ([1]; 20 μM, SE condition 2.3±0.4 Hz): 0.9±0.3 Hz | activity at 100 µM (GluK1-2b): 105 ± 5%
